Where “and” joins values, the source holds several entries; their conditions need not be identical. Equal entries are not always repeated.
Columns and labels:
panel of 68 kinases = assay: Targeted kinase screen (Kinase Profiling Service, Thermo Fisher Scientific); format: biochemical; conditions: 10 μM
Experimental: Targeted kinase screen. Inhibition of enzymatic activity of a panel of kinases in the presence of 10 μM ESATA-20 was analyzed by the Kinase Profiling Service at Thermo Fisher Scientific.

Water solubility = format: physicochemical
HDAC4 KD LNCaP cells = assay: In vitro growth of HDAC4 KD LNCaP cells; format: cell-based, human
Experimental: Generation of stable shRNA Knock Down (KD) Variants. Stable shRNA HDAC4, and HIF-1α knockdown (KD) were as described previously (id.). Stable shRNA AHR KD as described previously (id.) using […] (SEQ ID NO: 1) as the targeting sequence.
Similarly, under such optimal conditions, knocking down HDAC4 expression by 50% with shRNA only decreases the growth of LNCaP cells by <25%, which is equivalent to the inhibition by TasQ at 10 μM (FIG. 22). […] In contrast to normoxic in vitro conditions, cancers outgrow their blood supply in vivo, producing a TME that is hypoxic, nutrient-limited, and acidic (low pH). For example, when prostate cancer xenografts growing subcutaneously reach a size of ˜0.2-0.3 cc, the TME is already hypoxic with a pO2 of 3.6+/−1.5 mmHg compared to 37.5+/−8.6 mmHg in normal tissue (Dalrymple et al. Prostate 72, 638-648 (2012)). When LNCaP cells are switched from 21% O2 (i.e., 160 mmHg) to a hypoxic condition of 1% O2 (i.e., 7.6 mmHg), their growth decreases by 50% (FIG. 22). This hypoxia-induced growth inhibition is enhanced by either knocking down HDAC4 or by treatment with TasQ (FIG. 22).

[1] = tested on: LvCaP-3 human prostate cancer PDXs; assay: In vivo growth of LvCaP-3 xenografts in castrate hosts; conditions: daily oral 10 mg/kg
Description: (§1) Prostate Cancer Models. The source, history, and characteristics of the human prostate cancer cell lines and PDXs used, as well as cell culture conditions for their in vitro maintenance and the in vivo protocol for xenograft growth in triple immune-deficient NSG (i.e. NOD.Cg-PrkdcScidIl2rgtmlWji/Szj), adult (>8 week old) male mice obtained from the Sidney Kimmel Comprehensive Cancer Center (SKCCC) Animal Core Facility are described previously (Isaacs 2013; Brennen et al. JCI Insight. 2021, 6(8):e146827; Zhu et al. Oncogene 2020, 39(45): 6935-6949). […] In vitro growth curves were determined as described (Isaacs 2013). In vivo growth response to oral daily TasQ (10 mg/kg/d) of TRAMP-C2 mouse prostate cancers was evaluated in C57BL/6J syngeneic wild type vs. NOX-2 vs. iNOS null male mice obtained from Jackson Laboratory (Bar Harbor, ME). Growth response to oral daily TasQ (10 mg/kg/d) of TRAMP-C2 and B6CaP mouse prostate cancers was also evaluated in S100A9 null C57BL′6J male mice obtained from Dmitry Gabrilovich (Wistar Institute). […] In vitro growth curves were determined as described (Isaacs 2013). Growth response to daily oral TasQ vs. ESATA-20 (both at 10 mg/kg/d) of Myc-CaP-CR mouse prostate cancer was evaluated in syngeneic FVB/NJ castrate male mice from Jackson Laboratory. […]

[2] = tested on: TRAMP-C2 mouse prostate cancer; assay: In vivo growth of TRAMP-C2 allografts in C57BL/6J wild type vs. NOX2-, iNOS-, S100A9-KO hosts; conditions: daily oral 10 mg/kg/d over a 3-week period; wild type and KO hosts
Description: as §1

[3] = tested on: CWR-22Rv1 parental wild type cells; assay: In vivo growth of CWR-22Rv1 parental wild type xenografts; design: species or system human; conditions: daily oral 10 mg/kg/d
Description: as §1

[4] = tested on: human prostate cancer cell lines; conditions: optimal normoxic, nutrient and pH culture conditions; previous studies; read-out: IC50 in vitro growth of human prostate cancer cell lines; cited from earlier work
[5] = cited from earlier work
HIF-1α protein in tumors = conditions: daily oral 10 mg/kg/d; cited from earlier work

Compound | change in activity in any of the 68 kinases tested (panel of 68 kinases) [%] | water solubility compared with TasQ (Water solubility) | effect on HDAC4 KD cells exposed to hypoxia (HDAC4 KD LNCaP cells; 10 μM, 1% O2) | inhibition at 10 µM (HDAC4 KD LNCaP cells; Homo sapiens, LNCaP, normoxic) [%] | inhibition of growth of LvCaP-3 xenografts at the end of study [1] | inhibition of tumor growth [2] [%] | growth inhibition of wild type xenografts [3] [%] | IC50 [4] | blood concentrations maintained ([5]; daily oral 10 mg/kg/d) [nM] | serum nadir ([5]; oral 5 mg/kg/d, at 24 hrs) [µM] | lowering of HIF-1α protein in tumors (HIF-1α protein in tumors) [%]
COc1cccc2c1c(O)c(C(=O)N(c1ccc(C(F)(F)F)cc1)C1CCCCC1)c(=O)n2C [ESATA-20] | < 15 | less water soluble than TasQ |  |  |  |  |  |  |  |  | 
COc1cccc2c1c(O)c(C(=O)N(C)c1ccc(C(F)(F)F)cc1)c(=O)n2C [TasQ, Tasquinimod] |  |  | the cells die | > 50 | ⅔ | > 70 | > 80 | > 50 µM and ~50 µM | > 1000 | 1.08 ± 0.21 | > 50

Source: patent US20250059139A1, “COMPOUNDS FOR TREATMENT OF CANCER” (THE JOHNS HOPKINS UNIVERSITY, priority 2021, published 2025)
